These results are taken from publication PMC5908784, “Extracellular loops 2 and 3 of the calcitonin receptor selectively modify agonist binding and efficacy” (Biochemical Pharmacology, 2018).

Common to all, as to experiment: Heterologous whole cell competition binding
Common to all, as to details: heterologous competition of 125I-sCT(8-32), whole cells, mean ± S.E.M., SEM

The target in assay [1] is T1, hCTR V375A (Homo sapiens, UniProt P30988, V375A).
T1 construct: c-Myc (N); expressed in transfected cells
T1 sequence (P30988 25-474 V375A): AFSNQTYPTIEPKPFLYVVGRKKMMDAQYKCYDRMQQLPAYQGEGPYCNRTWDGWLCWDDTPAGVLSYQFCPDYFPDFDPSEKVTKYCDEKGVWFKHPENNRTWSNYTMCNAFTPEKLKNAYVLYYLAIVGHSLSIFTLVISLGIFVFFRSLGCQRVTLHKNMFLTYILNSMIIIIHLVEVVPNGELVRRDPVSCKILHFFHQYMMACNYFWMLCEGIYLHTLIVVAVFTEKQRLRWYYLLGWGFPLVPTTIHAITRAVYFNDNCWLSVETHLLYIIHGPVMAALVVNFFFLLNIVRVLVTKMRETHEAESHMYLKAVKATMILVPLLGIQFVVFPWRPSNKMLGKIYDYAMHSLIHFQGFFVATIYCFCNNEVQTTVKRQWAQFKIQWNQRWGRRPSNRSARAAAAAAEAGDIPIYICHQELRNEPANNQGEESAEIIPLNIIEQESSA
The method in brief:
(§1)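 Intact cells carrying the mutant calcitonin receptor are co-incubated overnight with labelled tracer and unlabelled competitor. Non-bound ligand is then washed away and retained radioactivity measured by gamma counting; competition data are converted to pKi using Cheng-Prusoff.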

Assay [2] deals with T2, hCTR F285A (Homo sapiens, UniProt P30988, F285A).
T2 construct: expressed in transfected cells
T2 sequence (P30988 25-474 F285A): T1 sequence (P30988 25-474 V375A) with F261A, A351V
An outline of the steps: as §1

The target of assay [3] is T3, hCTR K366A (Homo sapiens, UniProt P30988, K366A).
T3 construct: c-Myc (N); expressed in transfected cells
T3 sequence (P30988 25-474 K366A): T1 sequence (P30988 25-474 V375A) with K342A, A351V
An outline of the steps: as §1

Assay [4] addresses T4, hCTR T280A (Homo sapiens, UniProt P30988, T280A).
T4 construct: expressed in transfected cells
T4 sequence (P30988 25-474 T280A): T1 sequence (P30988 25-474 V375A) with T256A, A351V
An outline of the steps: as §1

Assay [5] has as its target T5, hCTR D373A (Homo sapiens, UniProt P30988, D373A).
T5 construct: c-Myc (N); expressed in transfected cells
T5 sequence (P30988 25-474 D373A): T1 sequence (P30988 25-474 V375A) with D349A, A351V
An outline of the steps:
as §1

Usually Ki stands for a dissociation constant, usually derived from enzyme kinetics or from competition with a known ligand.

SMILES strings stand for the structures. Changes are numbered by the printed parent chain. Where a SMILES comes first, the peptide text is derived from it. Bridges are numbered along the chain shown (N, C = ends).

Turning to `CSCC[C@H](NC(=O)CNC(=O)[C@H](CO)NC(=O)[C@H](Cc1ccccc1)NC(=O)[C@H](CCCNC(=N)N)NC(=O)[C@H](Cc1c[nH]cn1)NC(=O)[C@H](Cc1ccccc1)NC(=O)[C@H](CC(N)=O)NC(=O)[C@H](CC(N)=O)NC(=O)[C@H](CC(C)C)NC(=O)[C@H](CC(N)=O)NC(=O)[C@H](CCCNC(=N)N)NC(=O)[C@H](Cc1c[nH]c2ccccc12)NC(=O)[C@H](Cc1ccc(O)cc1)NC(=O)[C@H](C)NC(=O)[C@H](CO)NC(=O)[C@H](CC(C)C)NC(=O)[C@@H](NC(=O)[C@@H]1CSSC[C@H](N)C(=O)N[C@@H](CO)C(=O)N[C@@H](CC(N)=O)C(=O)N[C@@H](CC(C)C)C(=O)N[C@@H](CO)C(=O)N[C@@H]([C@@H](C)O)C(=O)N1)C(C)C)C(=O)NCC(=O)N[C@@H](Cc1ccccc1)C(=O)NCC(=O)N1CCC[C@H]1C(=O)N[C@@H](CCC(=O)O)C(=O)N[C@H](C(=O)N1CCC[C@H]1C(N)=O)[C@@H](C)O` [pCT] (H-CSNLSTCVLSAYWRNLNNFHRFSGMGFGPETP-NH2; disulfide 1-7), the inhibitory constant (Ki) in assay [1] was 0.00513 µM; in assay [2], 0.012 µM; in assay [3] it was 0.011 µM; in assay [4], 0.00631 µM; in assay [5], 0.0174 µM.
